According to patent US8530433B2, “Use of icariside II in manufacture of products for preventing or treating male or female sexual dysfunction” (Bjo-Biomed Ltd, priority 2008, dated 2013):

Columns and labels:
PAE-EGFR cells = test: NOS enzyme activity in EGFR expressing PAE-EGFR cells, NOS kit; type: cell-based, porcine; conditions: PAE-EGFR cells; LNNA 10^-5 M
Description: (§1) Porcine vascular endothelial cells (PAE) were provided by the Institute of Urology, Peking University. The determination of the effect of icariside II on NOS activity in the endothelial cell is conducted using NOS kit (Cayman Chemical company, Ann Arbor, Mich., USA). Vascular endothelial cells (PAE) were treated with different concentrations of icariside II (0, 10^−9, 10^−8, 10^−7, 10^−6, 10^−5 and 10^−4 M) (sildenafil as the control group). 180 μl lysate was added into each culture well. 20 μl supernatant was used for protein concentration assay with BCA protein kit. And, 100 μl supernatant was analyzed for NOS activity with NOS kit (Cayman Chemical company, Ann Arbor, Mich., USA). NOS activity (units/mg)=[(valueNos-measure−valueNOS-blank)÷(38.3×10^6)]×[(2.15+supernatant volume)÷(15×supernatant volume)]÷[protein concentration of each Petri dish]. 1) The EGFR gene was subcloned into pGFP plasmid to construct pGFP-EGFR expression vector. With Liposome transfection reagent (Qigen), pGFP-EGFR was transfected into PAE cells. After the selection with 1800 μg/ml of G418, a single cell clone was selected. Western blot confirms the stable expression of EGFR in the PAE-EGFR cells.

[1] = tested on: Primary human corpus cavernosum smooth muscle cells (CCSMCs); test: NOS activity in corpus cavernosum smooth muscle cells; type: cell-based; conditions: LNNA 4×10^−4 M
Description: Primary human corpus cavernosum smooth muscle cells ([…]) were provided by the Andrology Center of Peking University. The […] of the third passage were cultured in six well plates for two days. Then the cells were treated with icariside II or the sildenafil at a concentration of 0, 10^-9, 10^-8, 10^-7, 10^-6, 10^-5 M; or treated with icariside II (0, 10^-9, 10^-8, 10^-7, 10^-6, 10^-5 M) in the presence or absence of LNNA (4×10^-4 M). The control group was cultured with DMEM only. After 24 hours, the cells were washed three times and 180 μl lysis buffer was added into each well; 60 μl cell suspension was taken for protein concentration assay with BCA protein kit; 100 μl cell suspension was taken for NOS activity test. NOS activity (units/mg protein)=[(valueNOS-measure-valueNOS-blank)÷(38.3×10^6)]×[(2.15+supernatant volume)÷(15×S supernatant volume)]÷[protein concentration in each well].

[2] = tested on: Porcine vascular endothelial cells (PAE); test: NOS enzyme activity in vascular endothelial cells (PAE), NOS kit; type: cell-based; conditions: LNNA 10^-5 M
Description: as §1, with “dish].” for “dish]. 1) The EGFR gene was subcloned into pGFP plasmid to construct pGFP-EGFR expression vector. With Liposome transfection reagent (Qigen), pGFP-EGFR was transfected into PAE cells. After the selection with 1800 μg/ml of G418, a single cell clone was selected. Western blot confirms the stable expression of EGFR in the PAE-EGFR cells.”

NC(=NCCC[C@H](N)C(=O)O)N[N+](=O)[O-] [LNNA, reference compound]
NOS baseline activity after treatment with NOS inhibitor (PAE-EGFR cells): 3.27±0.319 u/mg
NOS activity after LNNA treatment [1]: 0.3 units/mg protein
effect on the regulatory effect of icariside II on endothelial cell NOS activity ([2]; p<0.05): significantly inhibited
NOS baseline activity after treatment with NOS inhibitor ([2]; PAE cells): 2.74±0.269 u/mg
